# Key:
# CCRF S-180 = test: Antitumor activity against mouse S180 cells implanted in ICR mouse assessed as reduction in tumor weight at 20 mg/kg, ip administered everyday for 7 days relative to control; assay type: functional; set-up: scale not given: the % may be the effect or the level left; conditions: time 7 day
# SW480 = test: Antiproliferative activity against human SW480 cells incubated for 48 hrs by MTT assay; assay type: functional, cell-based; conditions: SW480, 48 h
# A549 [1] = test: Antiproliferative activity against human A549 cells incubated for 48 hrs by MTT assay; assay type: functional, cell-based; conditions: A549, 48 h
# HL-60 = test: Antiproliferative activity against human HL-60 cells incubated for 48 hrs by MTT assay; assay type: functional, cell-based; conditions: HL-60, 48 h
# MCF7 [2] = test: Antiproliferative activity against human MCF7 cells incubated for 48 hrs by MTT assay; assay type: functional, cell-based; conditions: MCF7, 48 h
# SMMC-7721 = test: Antiproliferative activity against human SMMC-7721 cells incubated for 48 hrs by MTT assay; assay type: functional, cell-based; conditions: SMMC-7721, 48 h
# [3] = AUCinfinity in Sprague-Dawley rat at 2.5 mg/kg, iv measured after 5 to 1440 mins by LC-MS/MS analysis; assay type: ADME, organism-based; set-up: route intravenous, dose 2.5 mg/kg, time upper 1440 min, time lower 5 min; conditions: in vivo, time 5-1440 min, dose 2.5 mg/kg
# NCI-H1993 = test: Antiproliferative activity against human NCI-H1993 cells incubated for 48 to 72 hrs by MTT assay; assay type: functional, cell-based
# MKN-45 [4] = test: Antiproliferative activity against human MKN-45 cells incubated for 72 hrs by MTT assay; assay type: functional, cell-based; conditions: time 72 hrs
# MGC-803 [5] = test: Antiproliferative activity against human MGC-803 cells incubated for 48 hrs by MTT assay; assay type: functional, cell-based; conditions: MGC-803, 48 h
# HeLa [6] = test: Antiproliferative activity against human HeLa cells incubated for 48 hrs by MTT assay; assay type: functional, cell-based
# HepG2 [7] = test: Antiproliferative activity against human HepG2 cells incubated for 48 hrs by MTT assay; assay type: functional, cell-based; conditions: HepG2, 48 h
# BGC-823 [8] = test: Antiproliferative activity against human BGC-823 cells incubated for 48 hrs by MTT assay; assay type: functional, cell-based; conditions: BGC-823, 48 h
# K562/A02 [9] = test: Antiproliferative activity against human K562/A02 cells by MTT assay; assay type: functional, cell-based
# HeLa [10] = test: Antiproliferative activity against human HeLa cells by MTT assay; assay type: functional, cell-based
# HCT-116 = test: Antiproliferative activity against human HCT116 cells incubated for 3 days by MTT assay; assay type: functional, cell-based; conditions: HCT-116, 72 h
# KB [11] = test: Cytotoxicity against human KB cells by MTT assay; assay type: functional, cell-based
# [12] = Mean initial plasma concentration in Sprague-Dawley rat at 2.5 mg/kg, iv measured after 5 to 1440 mins by LC-MS/MS analysis; assay type: ADME, organism-based; conditions: Rattus norvegicus
# A549 [13] = test: Antiproliferative activity against human A549 cells incubated for 3 days by MTT assay; assay type: functional, cell-based; conditions: A549, 72 h
# K562 [14] = test: Antiproliferative activity against human K562 cells by MTT assay; assay type: functional, cell-based
# LoVo = test: Cytotoxicity against human LoVo cells by MTT assay; assay type: functional, cell-based
# K562 [15] = test: Antiproliferative activity against human K562 cells incubated for 48 hrs by MTT assay; assay type: functional, cell-based; conditions: K562, 48 h
# [16] = Cytotoxicity against human KBv200 cells by MTT assay; assay type: functional, cell-based; conditions: KBv200, Uterine cervix
# K562/Adr [17] = test: Antiproliferative activity against human K562/ADR cells incubated for 72 hrs by CCK8 assay; assay type: functional, cell-based
# KB [18] = test: Cytotoxicity against human Vincristine-resistant KB cells incubated for 72 hrs by SRB method; assay type: functional, cell-based
# K562/A02 [19] = test: Cytotoxicity against human K562/A02 cells by SRB assay; assay type: functional, cell-based
# MCF7 [20] = test: Cytotoxicity against human MCF7 cells by MTT assay; assay type: functional, cell-based
# KB [21] = test: Cytotoxicity against human KB cells incubated for 72 hrs by SRB method; assay type: functional, cell-based
# [22] = Plasma clearance in Sprague-Dawley rat at 2.5 mg/kg, iv measured after 5 to 1440 mins by LC-MS/MS analysis; assay type: ADME, organism-based; set-up: dose 2.5 mg/kg, time upper 1440 min, time lower 5 min; conditions: 2.5 mg/kg
# BGC-823 [23] = test: Antiproliferative activity against human BGC-823 cells incubated for 72 hrs by MTT assay; assay type: functional, cell-based; conditions: BGC-823, 72 h
# HOS = test: Cytotoxicity against human HOS cells by MTT assay; assay type: functional
# B16 = test: Antiproliferative activity against […] cells incubated for 48 to 72 hrs by MTT assay; assay type: functional, cell-based; conditions: Mus musculus
# HepG2 [24] = test: Antiproliferative activity against human HepG2 cells incubated for 48 to 72 hrs by MTT assay; assay type: functional, cell-based
# SK-OV-3 [25] = test: Antiproliferative activity against human SKOV3 cells incubated for 48 hrs by MTT assay; assay type: functional, cell-based; conditions: SK-OV-3, 48 h
# K562 [26] = test: Antiproliferative activity against human K562 cells incubated for 72 hrs by CCK8 assay; assay type: functional, cell-based; conditions: K562, 72 h
# HeLa [27] = test: Cytotoxicity against human HeLa cells by MTT assay; assay type: functional, cell-based
# MKN-45 [28] = test: Antiproliferative activity against human MKN-45 cells incubated for 48 to 72 hrs by MTT assay; assay type: functional, cell-based
# K562 [29] = test: Antiproliferative activity against human K562 cells incubated for 72 hrs by CCK8 method; assay type: functional, cell-based; conditions: K562, 72 h
# K562 [30] = test: Cytotoxicity against human K562 cells by SRB assay; assay type: functional, cell-based
# K562/A02 [31] = test: Antiproliferative activity against human K562/A02 cells incubated for 48 hrs by MTT assay; assay type: functional, cell-based; conditions: K562/A02, 48 h
# K562/VCR [32] = test: Potency index, ratio of vincristine IC50 to compound IC50 for antiproliferative activity against human K562/VCR cells; assay type: functional
# K562/Adr [33] = test: Antiproliferative activity against human K562/ADR cells incubated for 72 hrs by CCK8 method; assay type: functional, cell-based
# K562/VCR [34] = test: Potency index, ratio of etoposide IC50 to compound IC50 for antiproliferative activity against human K562/VCR cells; assay type: functional
# K562/VCR [35] = test: Antiproliferative activity against human K562/VCR cells incubated for 72 hrs by CCK8 method; assay type: functional, cell-based
# BGC-823 [36] = test: Potency index, ratio of etoposide IC50 to test compound IC50 for antiproliferative activity against human BGC-823 cells; assay type: functional
# MCF7 [37] = test: Potency index, ratio of etoposide IC50 to test compound IC50 for antiproliferative activity against human MCF7 cells; assay type: functional
# HeLa [38] = test: Potency index, ratio of etoposide IC50 to test compound IC50 for antiproliferative activity against human HeLa cells; assay type: functional
# A549 [39] = test: Potency index, ratio of etoposide IC50 to test compound IC50 for antiproliferative activity against human A549 cells; assay type: functional
# K562/A02 [40] = test: Potency index, ratio of etoposide IC50 to test compound IC50 for antiproliferative activity against human K562/A02 cells; assay type: functional
# MGC-803 [41] = test: Potency index, ratio of etoposide IC50 to test compound IC50 for antiproliferative activity against human MGC-803 cells; assay type: functional
# K562 [42] = test: Potency index, ratio of etoposide IC50 to test compound IC50 for antiproliferative activity against human K562 cells; assay type: functional
# SK-OV-3 [43] = test: Potency index, ratio of etoposide IC50 to test compound IC50 for antiproliferative activity against human SK-OV-3 cells; assay type: functional
# HepG2 [44] = test: Potency index, ratio of etoposide IC50 to test compound IC50 for antiproliferative activity against human HepG2 cells; assay type: functional
structure (smiles),measurement,setting,value
COc1cc([C@@H]2c3cc4c(cc3[C@@H](OC(=O)CCCC[C@@H]3SC[C@@H]5NC(=O)N[C@@H]53)[C@H]3COC(=O)[C@H]23)OCO4)cc(OC)c1O,Activity,CCRF S-180,37.7%
same,IC50,SW480,130 nM
same,IC50,A549 [1],130 nM
same,IC50,HL-60,130 nM
same,IC50,MCF7 [2],130 nM
same,IC50,SMMC-7721,130 nM
COc1cc([C@@H]2c3cc4c(cc3[C@@H](O[C@@H]3O[C@@H]5CO[C@@H](C)O[C@H]5[C@H](O)[C@H]3O)[C@H]3COC(=O)[C@H]23)OCO4)cc(OC)c1O [ETOPOSIDE],AUC,[3],3180 ng·h/mL
same,IC50,NCI-H1993,> 910 nM
same,Activity,MKN-45 [4],12.8%
same,IC50,MGC-803 [5],1060 nM
same,IC50,HeLa [6],8120 nM
same,IC50,HepG2 [7],310 nM
same,IC50,BGC-823 [8],1060 nM
same,IC50,K562/A02 [9],1980 nM
same,IC50,HeLa [10],310 nM
same,IC50,HCT-116,4900 nM
same,IC50,KB [11],1710 nM
same,C0,[12],16.8 µM
same,IC50,SW480,764 nM
same,IC50,A549 [13],4900 nM
same,IC50,K562 [14],22800 nM
same,IC50,LoVo,1710 nM
same,IC50,A549 [1],1060 nM
same,IC50,K562 [15],183 nM
same,IC50,[16],1710 nM
same,IC50,K562/Adr [17],413 nM
same,IC50,HL-60,310 nM
same,IC50,KB [18],2270 nM
same,GI50,K562/A02 [19],1080 nM
same,IC50,MCF7 [2],310 nM
same,IC50,MCF7 [20],1710 nM
same,IC50,KB [21],1740 nM
same,AUC,[22],933 ng·h/mL
same,IC50,BGC-823 [23],2880 nM
same,GI50,HOS,36600 nM
same,IC50,B16,> 910 nM
same,IC50,HepG2 [24],> 910 nM
same,IC50,SK-OV-3 [25],14800 nM
same,IC50,K562 [26],3390 nM
same,IC50,SMMC-7721,310 nM
same,IC50,HeLa [27],1710 nM
same,IC50,MKN-45 [28],> 910 nM
same,IC50,K562 [29],1060 nM
same,IC50,K562 [30],1980 nM
COc1cc(C(=O)/C=C/c2ccc(F)cc2)ccc1OCc1cn([C@@H]2c3cc4c(cc3[C@@H](c3cc(OC)c(OC)c(OC)c3)[C@H]3C(=O)OC[C@@H]32)OCO4)nn1,IC50,MGC-803 [5],530 nM
same,IC50,BGC-823 [8],530 nM
same,IC50,SK-OV-3 [25],530 nM
same,IC50,K562/A02 [31],530 nM
COc1cc([C@@H]2c3cc4c(cc3[C@H](OC(=O)c3nn(Cc5cc(Cl)cc(Cl)c5)c5ccccc35)[C@H]3COC(=O)[C@H]23)OCO4)cc(OC)c1OC,Ratio IC50,K562/VCR [32],8.1
same,IC50,K562/Adr [33],560 nM
same,Ratio IC50,K562/VCR [34],8.1
same,IC50,K562/VCR [35],578 nM
same,IC50,K562 [29],423 nM
COc1cc([C@@H]2c3cc4c(cc3[C@@H](n3ccnc3)[C@H]3COC(=O)[C@H]23)OCO4)cc(OC)c1OC,Ratio IC50,BGC-823 [36],5.8
same,Ratio IC50,MCF7 [37],5.8
same,Ratio IC50,HeLa [38],5.8
same,Ratio IC50,A549 [39],5.8
same,Ratio IC50,K562/A02 [40],5.8
same,Ratio IC50,MGC-803 [41],5.8
same,Ratio IC50,K562 [42],5.8
same,Ratio IC50,SK-OV-3 [43],5.8
same,Ratio IC50,HepG2 [44],5.8
